Test results reported in ChEMBL document CHEMBL1201862, “PubChem BioAssay data set” (2004).
The source made the active and inactive calls.

Columns and labels:
[1] = Luminescence Cell-Based Dose Confirmation HTS to Identify Activators of 5'UTR Stem-Loop Driven Alpha-Synuclein mRNA Translation in H4 Neuroglioblastoma Cells. [Related pubchem assays: 1829 (Project Summary), 1814 (Primary HTS)]; format: functional
[2] = Luminescence Cell-Based Dose Response HTS to Identify Activators of Luciferase Translation or Activity in H4 […] Cells. [Related pubchem assays: 1829 (Project Summary), 1814 (Primary HTS)]; format: functional
[3] = system: H4; experiment: Luminescence Cell-Based Dose Response HTS to Identify Activators of 5'UTR Stem-Loop Driven Prion Protein mRNA Translation in H4 Neuroglioblastoma Cells. [Related pubchem assays: 1829 (Project Summary), 1814 (Primary HTS)]; format: functional; conditions: Homo sapiens
[4] = molecular target: T1, Caspase-3 (Homo sapiens, UniProt P42574); format: functional;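 further: Dose-response selectivity test against caspase-3 for candidate inhibitors of sentrin-specific proteases (SENPs)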
T1 sequence (P42574 whole entry): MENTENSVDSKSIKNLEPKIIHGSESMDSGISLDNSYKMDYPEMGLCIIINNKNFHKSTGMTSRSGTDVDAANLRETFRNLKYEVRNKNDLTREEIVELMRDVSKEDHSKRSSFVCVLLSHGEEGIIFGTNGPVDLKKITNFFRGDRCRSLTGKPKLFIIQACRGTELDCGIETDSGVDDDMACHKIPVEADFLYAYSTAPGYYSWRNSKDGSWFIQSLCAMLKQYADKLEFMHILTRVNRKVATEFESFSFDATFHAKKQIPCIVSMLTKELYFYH

[5] = molecular target: T2, Sentrin-specific protease 7 (Homo sapiens, UniProt Q9BQF6); format: functional;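 further: Luminescence-based dose-response confirmation of ultra-high-throughput screening hits, measuring inhibition of SENP7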
T2 sequence (Q9BQF6 whole entry): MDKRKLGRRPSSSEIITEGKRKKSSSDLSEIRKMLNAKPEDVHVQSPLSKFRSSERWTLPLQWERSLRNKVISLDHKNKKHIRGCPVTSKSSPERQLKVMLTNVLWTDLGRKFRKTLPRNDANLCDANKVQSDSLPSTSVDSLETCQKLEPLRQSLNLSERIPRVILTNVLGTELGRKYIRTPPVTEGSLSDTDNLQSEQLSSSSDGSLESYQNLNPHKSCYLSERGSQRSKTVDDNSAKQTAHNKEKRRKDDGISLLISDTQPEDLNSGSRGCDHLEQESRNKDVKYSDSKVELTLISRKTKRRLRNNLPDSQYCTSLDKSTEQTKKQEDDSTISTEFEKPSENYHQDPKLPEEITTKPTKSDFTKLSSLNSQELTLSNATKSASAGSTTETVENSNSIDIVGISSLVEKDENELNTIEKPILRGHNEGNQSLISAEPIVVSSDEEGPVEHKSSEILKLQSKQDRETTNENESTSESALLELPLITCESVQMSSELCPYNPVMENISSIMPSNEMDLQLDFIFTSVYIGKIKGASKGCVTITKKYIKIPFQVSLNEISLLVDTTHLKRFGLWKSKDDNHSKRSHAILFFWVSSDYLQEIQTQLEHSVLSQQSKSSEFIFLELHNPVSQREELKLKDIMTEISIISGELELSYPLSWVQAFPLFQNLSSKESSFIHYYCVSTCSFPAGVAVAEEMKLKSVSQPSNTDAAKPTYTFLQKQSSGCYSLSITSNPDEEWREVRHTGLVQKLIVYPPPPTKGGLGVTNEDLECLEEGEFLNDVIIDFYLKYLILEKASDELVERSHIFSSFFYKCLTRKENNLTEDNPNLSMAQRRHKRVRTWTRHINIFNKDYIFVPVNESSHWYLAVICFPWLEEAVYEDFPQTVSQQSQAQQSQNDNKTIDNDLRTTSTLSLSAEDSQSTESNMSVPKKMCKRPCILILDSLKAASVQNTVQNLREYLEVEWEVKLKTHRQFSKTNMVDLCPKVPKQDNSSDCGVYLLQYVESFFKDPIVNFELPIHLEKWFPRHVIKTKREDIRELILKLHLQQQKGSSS

[6] = molecular target: T3, Sentrin-specific protease 6 (Homo sapiens, UniProt Q9GZR1); format: functional;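 further: Luminescence-based dose-response confirmatory assay of SENP6 inhibition, following up an ultra-high-throughput screen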
T3 sequence (Q9GZR1 whole entry): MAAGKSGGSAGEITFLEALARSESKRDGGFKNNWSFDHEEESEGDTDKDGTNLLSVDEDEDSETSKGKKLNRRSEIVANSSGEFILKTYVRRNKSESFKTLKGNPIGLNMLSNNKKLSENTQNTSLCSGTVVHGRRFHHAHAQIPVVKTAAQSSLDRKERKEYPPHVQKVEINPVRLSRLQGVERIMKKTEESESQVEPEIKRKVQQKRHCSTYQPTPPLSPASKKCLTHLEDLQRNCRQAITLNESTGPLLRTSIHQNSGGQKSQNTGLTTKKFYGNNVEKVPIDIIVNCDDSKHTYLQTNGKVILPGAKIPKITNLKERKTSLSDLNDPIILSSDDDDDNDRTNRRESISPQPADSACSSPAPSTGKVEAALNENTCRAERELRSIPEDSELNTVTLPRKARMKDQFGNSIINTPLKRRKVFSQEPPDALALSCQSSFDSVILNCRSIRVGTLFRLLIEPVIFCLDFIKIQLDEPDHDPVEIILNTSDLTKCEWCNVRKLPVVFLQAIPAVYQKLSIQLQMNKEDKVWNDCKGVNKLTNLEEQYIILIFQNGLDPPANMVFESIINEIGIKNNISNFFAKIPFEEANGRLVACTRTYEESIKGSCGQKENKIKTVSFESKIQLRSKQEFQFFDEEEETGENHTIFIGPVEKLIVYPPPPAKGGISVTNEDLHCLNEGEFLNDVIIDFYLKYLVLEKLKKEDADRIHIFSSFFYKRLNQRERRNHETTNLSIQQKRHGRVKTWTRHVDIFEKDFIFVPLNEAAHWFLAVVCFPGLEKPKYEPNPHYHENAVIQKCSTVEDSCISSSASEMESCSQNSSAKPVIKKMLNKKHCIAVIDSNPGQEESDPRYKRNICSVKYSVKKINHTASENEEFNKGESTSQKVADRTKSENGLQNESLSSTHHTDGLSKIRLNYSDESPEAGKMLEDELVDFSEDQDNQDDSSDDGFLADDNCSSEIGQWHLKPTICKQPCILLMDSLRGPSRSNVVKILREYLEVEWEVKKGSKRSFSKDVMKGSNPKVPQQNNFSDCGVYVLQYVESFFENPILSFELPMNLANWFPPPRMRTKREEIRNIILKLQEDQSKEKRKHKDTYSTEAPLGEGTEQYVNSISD

[7] = molecular target: T4, Sentrin-specific protease 8 (Homo sapiens, UniProt Q96LD8); format: functional;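 further: luminescence read-out of SENP8 inhibition, dose-response confirmation following an ultra-high-throughput screen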
T4 sequence (Q96LD8 whole entry): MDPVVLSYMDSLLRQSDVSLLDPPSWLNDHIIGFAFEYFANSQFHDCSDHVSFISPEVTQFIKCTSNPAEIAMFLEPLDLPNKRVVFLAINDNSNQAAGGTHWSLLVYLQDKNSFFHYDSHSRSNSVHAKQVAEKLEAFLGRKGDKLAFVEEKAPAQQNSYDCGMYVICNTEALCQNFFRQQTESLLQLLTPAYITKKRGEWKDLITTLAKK

[8] = molecular target: T5, Protein skinhead-1 (Caenorhabditis elegans, UniProt P34707); format: functional
T5 sequence (P34707 whole entry): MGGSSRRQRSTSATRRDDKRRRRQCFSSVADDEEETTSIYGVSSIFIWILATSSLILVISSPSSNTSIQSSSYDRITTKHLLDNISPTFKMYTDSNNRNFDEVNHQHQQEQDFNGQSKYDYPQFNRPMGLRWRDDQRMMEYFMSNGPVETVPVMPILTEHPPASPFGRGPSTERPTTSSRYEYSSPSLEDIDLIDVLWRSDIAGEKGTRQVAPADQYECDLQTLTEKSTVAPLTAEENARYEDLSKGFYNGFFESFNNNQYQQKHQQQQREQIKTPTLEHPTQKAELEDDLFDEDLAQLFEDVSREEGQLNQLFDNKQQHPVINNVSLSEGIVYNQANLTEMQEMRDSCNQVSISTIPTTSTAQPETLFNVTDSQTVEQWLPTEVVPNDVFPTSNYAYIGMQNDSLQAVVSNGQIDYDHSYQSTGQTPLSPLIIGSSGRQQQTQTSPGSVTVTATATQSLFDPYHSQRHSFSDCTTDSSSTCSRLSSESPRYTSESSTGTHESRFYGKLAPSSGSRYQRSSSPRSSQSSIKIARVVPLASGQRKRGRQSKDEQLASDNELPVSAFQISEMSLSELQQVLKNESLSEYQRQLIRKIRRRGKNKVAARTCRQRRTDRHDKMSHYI

[9] = cytotoxicity in HEK-293T cells, dose response, cytotoxicity control for TCR NF-kB inhibitor project, luminescence, T-cell screen hits (AID 489026); format: functional, cell-based;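 further: cells exposed to compound about 14 hours before the viability readout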
[10] = molecular target: Nonstructural protein 1 (Influenza A virus, UniProt Q194T2); format: functional, Influenza A virus (A/California/07/2009(H1N1))
[11] = molecular target: T6, Carboxy-terminal domain RNA polymerase II polypeptide A small phosphatase 1 (Homo sapiens, UniProt Q9GZU7); experiment: inhibitors of CTDSP1, concentration-response testing, biochemical assay, absorbance-based, actives from ultra-high-throughput screening (AID 540297); format: functional
T6 sequence (Q9GZU7 whole entry): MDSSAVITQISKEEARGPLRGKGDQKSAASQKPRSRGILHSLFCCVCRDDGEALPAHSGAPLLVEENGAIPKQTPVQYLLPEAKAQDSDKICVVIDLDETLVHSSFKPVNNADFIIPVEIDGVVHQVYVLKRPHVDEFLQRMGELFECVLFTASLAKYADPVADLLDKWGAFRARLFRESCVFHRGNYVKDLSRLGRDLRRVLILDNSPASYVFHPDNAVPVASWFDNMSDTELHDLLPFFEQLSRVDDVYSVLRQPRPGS

[12] = molecular target: Large T antigen (Simian virus 40, UniProt P03070); format: functional, Betapolyomavirus macacae;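 further: Confirmatory-stage PubChem screen for compounds that inhibit SV40 T antigen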
[13] = molecular target: Glucose-6-phosphate 1-dehydrogenase (Homo sapiens, UniProt P11413); experiment: human G6PD enzyme inhibitors, dose response, selectivity assay for P. falciparum G6PD inhibitor project, biochemical, fluorescence (AID 504792); format: functional
[14] = molecular target: T7, Heat shock factor protein 1 (Mus musculus, UniProt P38532); experiment: HSF1 potentiators in luciferase reporter cells, confirmation, cell-based, NIH3T3, luminescence, dose retest (AID 435004); format: functional;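 further: stress induced by proteasome inhibitor MG132 added 30 min after compound; luciferase reporter driven by HSF1 response element in NIH3T3 cells; actives raise luminescence as potentiators of the MG132 stress response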
T7 sequence (P38532 whole entry): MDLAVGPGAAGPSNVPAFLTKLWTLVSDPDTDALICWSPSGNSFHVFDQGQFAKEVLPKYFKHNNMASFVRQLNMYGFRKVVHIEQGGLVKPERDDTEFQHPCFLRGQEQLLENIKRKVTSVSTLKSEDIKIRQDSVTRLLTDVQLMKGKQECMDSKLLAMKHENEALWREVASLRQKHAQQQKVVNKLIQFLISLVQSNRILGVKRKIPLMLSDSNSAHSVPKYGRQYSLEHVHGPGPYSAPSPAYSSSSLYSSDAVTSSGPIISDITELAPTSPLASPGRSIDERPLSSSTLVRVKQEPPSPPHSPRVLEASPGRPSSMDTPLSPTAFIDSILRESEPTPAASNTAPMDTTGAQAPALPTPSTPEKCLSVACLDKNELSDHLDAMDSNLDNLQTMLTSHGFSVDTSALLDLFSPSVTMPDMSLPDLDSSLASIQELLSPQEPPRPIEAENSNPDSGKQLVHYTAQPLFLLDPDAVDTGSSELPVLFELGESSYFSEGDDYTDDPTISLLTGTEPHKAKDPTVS

[15] = inhibitors of firefly luciferase expression or activity, dose response, H4 neuroglioma cells, luminescence (AID 1990); format: functional, cell-based
[16] = Luminescence Cell-Based Dose Response HTS to Identify Inhibitors of 5'UTR Stem-Loop Driven Prion Protein mRNA Translation in H4 Neuroglioblastoma Cells. [Related pubchem assays: 1827 (Project Summary), 1813 (Primary HTS)]; format: functional
[17] = inhibitors of SNCA 5'UTR-driven reporter translation, confirmation, H4 neuroglioma cells, luminescence (AID 1988); format: functional, cell-based
[18] = microbe, parasite or virus in culture; format: functional; conditions: Mycobacterium tuberculosis
[19] = system: INS1; experiment: beta cell apoptosis inhibitors, cytokine rescue, dose response, luminescence, retest (AID 449756); format: functional, cell-based; conditions: Rattus norvegicus;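 further: cell death triggered by IL-1 beta plus TNF-alpha plus IFN-gamma mixture; protective hits raise ATP signal compared with cytokine alone wells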
[20] = molecular target: Paired box protein Pax-8 (Homo sapiens, UniProt Q06710); experiment: inhibitors of PAX8-driven TPO luciferase reporter, dose response, RMG-I cells, cherry-pick (AID 687027); format: functional, cell-based;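 further: luciferase reporter driven by Pax8 target thyroperoxidase promoter measured by SteadyGlo luminescence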
Chain of Paired box protein Pax-8 (Q06710 whole entry): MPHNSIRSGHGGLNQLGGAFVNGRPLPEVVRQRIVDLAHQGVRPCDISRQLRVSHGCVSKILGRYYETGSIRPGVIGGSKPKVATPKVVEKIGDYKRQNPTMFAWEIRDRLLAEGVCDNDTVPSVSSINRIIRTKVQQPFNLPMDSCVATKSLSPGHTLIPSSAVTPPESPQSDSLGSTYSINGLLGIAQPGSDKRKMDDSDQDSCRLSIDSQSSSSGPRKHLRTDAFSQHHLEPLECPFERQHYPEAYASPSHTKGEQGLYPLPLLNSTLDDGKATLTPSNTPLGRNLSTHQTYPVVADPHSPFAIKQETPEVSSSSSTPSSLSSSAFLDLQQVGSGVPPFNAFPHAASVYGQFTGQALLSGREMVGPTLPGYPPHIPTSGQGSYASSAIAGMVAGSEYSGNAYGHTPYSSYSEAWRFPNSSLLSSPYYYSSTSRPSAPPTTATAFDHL

Chain of Nonstructural protein 1 (Q194T2 whole entry, the tested form may be a part): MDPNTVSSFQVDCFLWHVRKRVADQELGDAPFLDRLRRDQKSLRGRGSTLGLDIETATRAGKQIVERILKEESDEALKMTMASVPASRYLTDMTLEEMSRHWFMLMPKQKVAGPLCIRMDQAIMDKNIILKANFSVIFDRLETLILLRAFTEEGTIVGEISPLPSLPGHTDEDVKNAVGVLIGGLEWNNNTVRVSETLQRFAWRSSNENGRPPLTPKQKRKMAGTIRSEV
Chain of Large T antigen (P03070 whole entry): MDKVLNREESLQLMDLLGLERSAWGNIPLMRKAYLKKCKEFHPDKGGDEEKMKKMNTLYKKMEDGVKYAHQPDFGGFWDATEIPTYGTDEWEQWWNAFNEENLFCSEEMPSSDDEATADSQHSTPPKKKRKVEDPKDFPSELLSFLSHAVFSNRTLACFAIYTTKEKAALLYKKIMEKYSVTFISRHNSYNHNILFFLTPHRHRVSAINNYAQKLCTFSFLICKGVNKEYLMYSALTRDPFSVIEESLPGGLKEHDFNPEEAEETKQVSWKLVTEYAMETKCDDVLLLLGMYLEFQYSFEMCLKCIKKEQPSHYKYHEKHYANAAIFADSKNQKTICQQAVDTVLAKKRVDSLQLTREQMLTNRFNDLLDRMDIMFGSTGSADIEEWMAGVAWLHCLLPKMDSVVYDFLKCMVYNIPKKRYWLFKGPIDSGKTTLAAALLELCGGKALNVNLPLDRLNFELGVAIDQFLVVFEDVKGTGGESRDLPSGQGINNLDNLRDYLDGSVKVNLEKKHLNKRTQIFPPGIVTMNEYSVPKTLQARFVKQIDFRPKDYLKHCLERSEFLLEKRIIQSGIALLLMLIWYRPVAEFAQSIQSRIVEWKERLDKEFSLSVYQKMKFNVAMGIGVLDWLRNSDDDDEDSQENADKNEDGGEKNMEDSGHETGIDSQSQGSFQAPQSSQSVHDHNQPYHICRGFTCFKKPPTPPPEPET
Chain of Glucose-6-phosphate 1-dehydrogenase (P11413 whole entry): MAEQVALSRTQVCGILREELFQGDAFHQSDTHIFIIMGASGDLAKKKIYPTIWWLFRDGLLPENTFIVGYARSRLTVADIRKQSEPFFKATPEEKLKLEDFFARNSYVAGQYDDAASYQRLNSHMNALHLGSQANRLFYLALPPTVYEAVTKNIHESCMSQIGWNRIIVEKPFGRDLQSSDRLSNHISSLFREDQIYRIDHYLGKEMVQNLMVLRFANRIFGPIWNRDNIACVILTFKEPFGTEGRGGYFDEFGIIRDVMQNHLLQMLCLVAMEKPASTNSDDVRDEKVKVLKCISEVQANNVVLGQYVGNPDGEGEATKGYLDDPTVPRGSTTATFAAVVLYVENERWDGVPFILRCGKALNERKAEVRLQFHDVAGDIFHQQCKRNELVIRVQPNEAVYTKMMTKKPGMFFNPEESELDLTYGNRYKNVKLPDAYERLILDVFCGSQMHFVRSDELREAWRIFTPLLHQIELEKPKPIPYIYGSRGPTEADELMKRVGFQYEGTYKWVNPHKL

O=C(Nc1nccs1)c1ccc(-c2ccccc2Cl)o1
EC50 [1]: 27 µM (active) | EC50 [2]: 106 µM (active) | EC50 [3]: 23.5 µM (inconclusive) | IC50 [4]: 22 µM (active) | IC50 [5]: 4.57 µM (active) | IC50 [6]: > 100 µM (inactive) | IC50 [7]: 25.1 µM (active) | IC50 [8]: > 100 µM (inactive)

Cc1ccc(O)c(NC(=O)CCC2CCCCC2)c1
IC50 [9]: > 80 µM (inactive)

CN1CCN(c2cc(N3CCCCCC3)c(F)cc2[N+](=O)[O-])CC1
IC50 [10]: > 100 µM (active)

CCc1ccc(OCC(=O)NNC(=O)c2ccc(NC(=O)C3CC3)cc2)cc1
IC50 [11]: 10.5 µM (active)

O=C(CCN1C(=O)/C(=C/c2ccc(Cl)cc2)SC1=S)Nc1ccc(C(=O)O)cc1
IC50 [11]: 2.64 µM (active)

CN1CCN(C(=O)c2cccc(-c3cc(O)c4ncccc4c3)c2)CC1
IC50 [10]: 11.4 µM (active)

O=C(CCCc1ccccc1)c1ccccc1
IC50 [4]: 13.5 µM (active) | IC50 [5]: 7.31 µM (active) | IC50 [6]: 20.4 µM (active) | IC50 [7]: 54.9 µM (active)

O=C(CCN1C(=O)S/C(=C\c2ccc(Cl)cc2)C1=O)Nc1ccc(C(=O)O)cc1
IC50 [11]: 6.17 µM (active)

C[C@]12CC[C@@H]3c4cc(O)c(O)cc4CC[C@H]3[C@@H]1CC[C@@H]2O
IC50 [12]: > 100 µM (active) | IC50 [13]: 72.5 µM (inactive) | IC50 [9]: > 80 µM (inactive) | EC50 [14]: 4.07 µM (active)

CCCCCCCCn1c2c(c(=N)c3c1CCC3)CCCC2
EC50 [15]: 4.15 µM (active) | EC50 [16]: 32.4 µM (active) | EC50 [17]: 7.18 µM (active) | CC50 [18]: 32.7 µM (active) | IC50 [9]: 73.8 µM (inactive) | AC50 [19]: < 0.195 µM (active) | AC50 [20]: 2.36 µM (active)
